Tests used:
[1] = molecular target: Ustilago maydis acetyl CoA carboxylase (ACCase) (Ustilago maydis, UniProt A0A0D1DYD5); assay: ACCase enzymatic assay (coupled PK/LDH, NADH OD340); assay type: biochemical; details: read-out: ACCase Inhibitory Activity IC50
Description: Ustilago maydis acetyl CoA carboxylase (ACCase) was cloned, expressed, and purified as described (Weatherly et al, Biochem. J., 2004) and the test compounds were tested in a 96-well plate format. Primary in vitro screening consisted of obtaining dose response data at 100, 33, 10, and 1 μM inhibitor. Actives in the primary screen were re-tested to establish IC50 values.
Direct detection of the conversion of acetyl CoA to malonyl CoA by ACCase was not feasible, but during this process ATP is converted to ADP which allowed for detection through a standard reaction coupling with ADP recycling to the oxidation of NADH. Thus, ACCase activity was measured via kinetic OD340 measurements of the conversion of NADH to NAD in a coupled reaction involving the conversion of phosphoenolpyruvate (PEP) to lactate.
The complete 200 ul reaction mixture contained 52.5 mM HEPES (pH8), 2.625 mM MgCl2, 1 mM ATP, 0.525 mM DTT, 11 mM NaHCO3, 1% DMSO with or without inhibitor, 1× pyruvate kinase/lactate dehydrogenase (PK/LDH), 0.3 mM NADH, 0.5 mM PEP, and 5 μg ACCase. The reactions were incubated at 30° C. for 10 minutes and then initiated by the addition of 0.33 mM acetyl CoA. The initiated reactions were read immediately via plate reader at OD340 and kinetic readings were acquired every 20 s for 15 minutes while keeping the temperature at 30° C.
A slope of the kinetic curve was determined by using the 2 to 7 minute data which was then calculated as percent inhibition relative to the no inhibitor control.
The primary screens were conducted in duplicate and the IC50's conducted in triplicate. Averages were reported along with standard deviation calculation to generate error bars.
Each plate contained its own controls and consisted of a DMSO only control, 5-fold titration series of soraphen from 2 μM to 3.2 nM, and an ADP coupled reaction control. […]
A slope of the kinetic curve was determined by using the 2 to 7 minute data which was then calculated as percent inhibition relative to the no inhibitor control. Those compounds which had no significant PK/LDH inhibition at or above the IC50 in the ACCase assay, were considered to be valid modulators of only ACCase.

Botrytis cinerea = assay: Fungal growth inhibition assay, B. cinerea; assay type: cell-based; details: 48 h
Source text: Spores were isolated from previously sub-cultured plates of Botrytis cinerea, Phytophthora capsici, Fusarium moniliforme, Fusarium viguliforme, Collectotrichum graminicola, and Diplodia maydis. All spores were filtered and collected in a sterile glass bowl to isolate the spores from the mycelia. The isolation and sub-culture plate condition for each pathogen is described below.
Spore isolation for B. cinerea: A 2-3 week old V8 (17%)+CaCO3 (3 g/L)+20 g agar plate was removed from room temperature and the mycelia were treated with 5-10 ml of filter sterilized Triton X 100 (0.05%). The mycelia were scraped to re-suspend the spores. The spores were then collected in a sterile filter bowl containing a fluted piece of filter paper and poured into a conical tube.
After spore isolation, pathogen spores were counted on a hemocytometer to calculate the spores/ml. In 17% V8 liquid media containing 3 g/L CaCO3, isolated spores were diluted to individual concentrations based on the growth curves at 48 hours of each pathogen. The spore concentrations for each pathogen were as follows: B. cinerea—10,000 sp/ml; P. capsici—300 sp/ml; F. monliforme—500 sp/ml; F. virguliforme—500 sp/ml; C. graminicola—3,000 sp/ml; and D. maydis—3,000 sp/ml.
Chemistry stocks were dissolved in DMSO at 2.5 mg/ml. Chemistry was diluted in a 96-well stock plate in five-fold dilutions to obtain a final concentration of 50, 10, and 2 ppm in vitro. The final concentration of the positive control after the five-fold dilutions was as follows: soraphen—0.5, 0.1, and 0.02 ppm. Negative controls on each plate included 2% DMSO, water containing spores and media, and a blank for background subtraction.
In a 96-well plate the spore solution, chemistries, and controls were combined to make the final solution concentrations mentioned above. Upon addition of the chemistry, an OD600 reading was done to assess chemical precipitation. […] Plate readings were repeated at 24 and 48 hrs. […]

Chain of Ustilago maydis acetyl CoA carboxylase (ACCase) (A0A0D1DYD5 1-2185): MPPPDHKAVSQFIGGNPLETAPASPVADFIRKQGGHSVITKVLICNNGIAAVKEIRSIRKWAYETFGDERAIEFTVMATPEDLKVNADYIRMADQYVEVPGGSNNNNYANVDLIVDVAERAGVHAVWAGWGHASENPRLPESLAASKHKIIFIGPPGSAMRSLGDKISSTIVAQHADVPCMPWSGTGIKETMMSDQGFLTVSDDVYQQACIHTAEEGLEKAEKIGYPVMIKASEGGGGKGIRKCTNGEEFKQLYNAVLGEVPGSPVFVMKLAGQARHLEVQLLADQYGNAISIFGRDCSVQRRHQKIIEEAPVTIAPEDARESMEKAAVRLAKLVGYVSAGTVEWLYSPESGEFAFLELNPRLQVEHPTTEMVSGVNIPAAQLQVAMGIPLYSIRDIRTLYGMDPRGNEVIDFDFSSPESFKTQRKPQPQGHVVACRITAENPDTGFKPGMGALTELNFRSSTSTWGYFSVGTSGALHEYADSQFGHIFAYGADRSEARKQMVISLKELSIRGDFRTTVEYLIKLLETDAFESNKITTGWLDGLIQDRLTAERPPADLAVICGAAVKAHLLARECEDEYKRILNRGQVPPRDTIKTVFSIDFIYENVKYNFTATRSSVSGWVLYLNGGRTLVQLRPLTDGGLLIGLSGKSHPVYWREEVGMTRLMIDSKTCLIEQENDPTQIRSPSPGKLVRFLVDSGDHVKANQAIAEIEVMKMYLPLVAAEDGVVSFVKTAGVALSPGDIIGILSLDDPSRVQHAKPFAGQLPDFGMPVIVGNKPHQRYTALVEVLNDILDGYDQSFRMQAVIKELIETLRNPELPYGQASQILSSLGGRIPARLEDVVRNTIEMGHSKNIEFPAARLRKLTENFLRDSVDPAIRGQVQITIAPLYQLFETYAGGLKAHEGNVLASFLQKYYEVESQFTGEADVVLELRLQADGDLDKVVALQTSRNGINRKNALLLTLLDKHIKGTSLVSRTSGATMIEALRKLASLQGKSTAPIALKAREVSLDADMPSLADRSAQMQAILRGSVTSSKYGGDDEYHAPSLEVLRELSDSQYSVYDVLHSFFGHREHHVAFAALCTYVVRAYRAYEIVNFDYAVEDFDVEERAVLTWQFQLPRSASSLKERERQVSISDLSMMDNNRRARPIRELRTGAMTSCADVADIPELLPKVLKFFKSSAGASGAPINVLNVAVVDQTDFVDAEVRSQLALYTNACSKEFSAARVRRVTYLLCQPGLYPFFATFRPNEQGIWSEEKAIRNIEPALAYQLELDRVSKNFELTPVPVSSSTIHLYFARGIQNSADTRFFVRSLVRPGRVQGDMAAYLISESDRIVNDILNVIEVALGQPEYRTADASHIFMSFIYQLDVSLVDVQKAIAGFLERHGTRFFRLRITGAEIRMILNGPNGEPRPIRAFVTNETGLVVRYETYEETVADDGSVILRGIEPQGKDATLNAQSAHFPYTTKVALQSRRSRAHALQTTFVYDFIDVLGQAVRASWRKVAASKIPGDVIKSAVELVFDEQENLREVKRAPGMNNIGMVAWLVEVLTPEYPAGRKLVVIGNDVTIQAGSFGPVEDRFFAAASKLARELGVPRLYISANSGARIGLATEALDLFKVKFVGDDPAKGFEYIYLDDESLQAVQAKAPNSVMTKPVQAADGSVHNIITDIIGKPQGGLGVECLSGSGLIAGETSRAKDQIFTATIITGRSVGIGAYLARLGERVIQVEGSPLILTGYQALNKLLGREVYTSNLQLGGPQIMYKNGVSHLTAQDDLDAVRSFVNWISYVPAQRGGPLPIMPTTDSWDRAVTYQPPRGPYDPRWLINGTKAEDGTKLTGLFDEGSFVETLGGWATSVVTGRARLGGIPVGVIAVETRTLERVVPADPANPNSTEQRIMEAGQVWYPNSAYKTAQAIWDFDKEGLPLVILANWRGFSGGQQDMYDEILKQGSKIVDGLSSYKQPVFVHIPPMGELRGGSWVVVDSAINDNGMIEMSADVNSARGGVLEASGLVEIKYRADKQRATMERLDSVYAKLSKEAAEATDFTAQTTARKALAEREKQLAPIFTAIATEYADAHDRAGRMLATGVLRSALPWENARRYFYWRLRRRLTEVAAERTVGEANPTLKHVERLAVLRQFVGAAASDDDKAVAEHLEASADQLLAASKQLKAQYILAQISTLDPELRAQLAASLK

Row | Compound | IC50 [1] | inhibition at 2 ppm (Botrytis cinerea; 2 ppm) | inhibition at 10 ppm (Botrytis cinerea; 10 ppm) | inhibition at 50 ppm (Botrytis cinerea; 50 ppm)
1 | O=C(O)Cc1ccc(-c2cc(-c3ccccc3)c3ccccc3n2)s1 [Formula Ib-iv, 2-(5-(4-phenylquinolin-2-yl)thiophen-2-yl)acetic acid] | 145 nM | 0% | 1% | 42%
2 | O=C(O)Cc1ccc(-c2nc3ccccc3c(-c3ccccc3)c2Cl)s1 [Formula Ib-ii, 2-(5-(3-chloro-4-phenylquinolin-2-yl)thiophen-2-yl)acetic acid] | 110 nM |  |  | 

Source: patent US10995070B2, “Acetyl-CoA carboxylase modulators” (Monsanto Technology LLC, priority 2013, dated 2021)
